Test results taken from US20220105157A1, “Compositions and Methods for Promoting Angiogenesis in the Eye” (The Regents of the University of California, priority 2019, published 2022).

How the values were obtained:
guinea pig skin = assay: Vessel permeability in guinea pig skin (Evans blue); assay type: in vivo; conditions: intradermal 1, 5, 25, 100, 200 ng per injection site
Experimental: In FIG. 5A, Hairless male guinea pigs (Crl: HA-Hrhr/IAF, 450-500 g, Charles River Laboratories) were anesthetized by intraperitoneal (i.p.) administration of xylazine (5 mg/kg) and ketamine (75 mg/kg). The animals then received an intravenous injection (penile vein) of 1 ml of 1% Evans blue dye. After 15 min, intradermal injections (0.05 ml/per site) of different doses (1, 5, 25, 100, 200 ng per injection site) of rhLIF in PBS were administrated into the area of trunk posterior to the shoulder. 0.05 ml of PBS and 25 ng of VEGF in 0.05 ml of PBS were injected as negative and positive controls. 30 min after the intradermal injections, animals were euthanized by i.p. injection of pentobarbital (200 mg/kg). Skin tissues were dissected from the connective tissues and photographed, n=2. In FIG. 5B, Vascular leakage is shown in mouse retina. LIF (10 ng) or VEGF (100 ng) was injected in the vitreous cavity (0.1% BSA/PBS as control). TRITC-dextran was used to indicate the vascular leakage. Retinal vasculature was labeled by FITC-lectin, n=5.

mouse retina = assay: Measurement of vascular leakage in retina (TRITC-dextran); assay type: in vivo; conditions: mice, LIF 10 ng intravitreally
Experimental: Recombinant human VEGF (100 ng) or LIF (10 ng) was injected into the vitreous (0.1% BSA PBS solution as vehicle control). TRITC-dextran (50 mg/ml, 100 ul) was then injected into the tail vein. Ten minute later, animals were sacrificed and eyes were enucleated. Retina flat mount was imaged under microscope (65).

BAE cells [1] = assay: BrdU incorporation assay; assay type: cell-based, bovine; conditions: LIF 48 hours
Experimental: BAE cells were plated at the density of 2×10^4 cells/well with 1 ml of culture medium (DMEM-low glucose plus 10% BCS) in a 12-well plate with a 18-mm poly-D-lysine-treated coverslip in each well, incubating at 37° C. overnight. After removal of culture medium, cells were incubated in 0.5 ml of DMEM-low glucose plus 1% BCS. LIF (10 ng/ml) and vehicle control (0.1% BSA in PBS) were added to the cells. Upon LIF treatment for 48 hours, cells were subjected to BrdU incorporation by adding 2.5 μl of 2 mM BrdU in DMSO to each well to a final concentration 10 μM and incubating for 4 hours. Then, cells are subjected to BrdU immunofluorescence staining using an antibody against BrdU conjugated with Fluor alexa-488 (Biolegend, CAT #364106, 1:400). Briefly, BrdU labeling medium was removed from the culture plates and cells were fixed with 3.7% formaldehyde in PBS at room temperature for 15 minutes. Cell DNAs were denatured with 1N HCl on ice for 10 minutes and 2N HCl at room temperature for 10 minutes following cell permeabilization with 0.1% Triton X-100 in PBS (PBST). […] Four fields were randomly selected for each sample and the BrdU-positive nuclei as well as total nuclei (DAPI-positive) were counted manually; the percentages of BrdU-positive cells were determined by dividing the numbers of BrdU-positive nuclei with the numbers of total nuclei. […]

BAE cells [2] = assay: Annexin V staining for cell death; assay type: cell-based, bovine; conditions: BAE cells treated with LIF (10 ng/ml) for 24 hours
Experimental: BAE cells were plated at a density of 2×10^4 cells/well with 1 ml of culture medium (DMEM-low glucose plus 10% BCS) in 12-well plates and then incubated at 37° C. overnight. After removal of culture medium, cells were incubated in 0.5 ml of DMEM-low glucose plus 1% BCS. LIF (10 ng/ml) and vehicle control (0.1% BSA in PBS) were added to the cells. Following LIF treatment for 24 hours, cells were examined for cell death marker Annexin V using Annexin V-Cy5 Apoptosis Staining Detection Kit (Abcam, CAT #ab14150) according to manufacturer's instructions. Briefly, cell culture medium was removed and 0.5 ml of Annexin V binding solution was laid over onto the cells. Cells were incubated at room temperature for 5 min following addition of 5 μl of Annexin V-Cy5. Then, the staining solution was discarded and replaced with 0.5 ml of Annexin V binding solution. Imaging of Annexin V staining were performed using Keyence Microscope BZ-X710 (Keyence Corporation, Osaka, Japan). Four random fields were selected and the percentages of Annexin V-staining area in total cell-covered area as indicatives for cell death were determined using ImageJ software. The experiment was carried out in triplicate and repeated three time.

[3] = system: bovine aortic endothelial (BAE) cells; assay: BAE endothelial cell proliferation assay (alamar blue); assay type: cell-based
Experimental: The bovine endothelial proliferation assays were performed essentially as previously described (63, 64). BCE (1×10^3 cells/well) or BRE (5×10^2 cells/well) cells were seeded in 96-well plates in the culture medium (DMEM-low glucose supplemented with 10% BCS, 2 mM glutamine and antibiotics) plus testing materials with a total volume of 200 μl per well. BAE cells were plated in 96-well plates at a density of 2×10^3 cells in the culture medium (DMEM-low glucose supplemented with 1% BCS and antibiotics) plus testing material with a total volume of 200 μl per well. HRME cells were seeded at a density of 1×10^3 cells/well in gelatin-coated 96-well plates in assay medium (DMEM-low glucose supplemented with 20% FBS and antibiotics) plus testing materials to make a total volume 200 μl per well. For assays involving antibodies or small-molecule inhibitors, inhibitors or vehicle controls were first added and then test materials were added one hour later. After 6 days (unless otherwise specified), cells were incubated with alamar blue for 4 h. Fluorescence was measured at 530 nm excitation wavelength and 590 nm emission wavelength. Each experiment was carried out in duplicate/triplicate and repeated at least three times.

For “LIF: recombinant human leukemia inhibitory factor, a member of the IL-6 family of cytokines”, the “vascular permeability in guinea pig skin” value (guinea pig skin) was “does not induce vascular permeability”, the retinal microvascular leakage (mouse retina) was “does not induce retinal microvascular leakage” and the “BrdU incorporation compared to the vehicle control” value (BAE cells [1]) was “significantly reduced”. For the same substance, the “Annexin V positive cells (cell death marker)” value (BAE cells [2]) was “increased proportion of cells were Annexin V positive” and the BAE cell growth [3] was “growth inhibition”.
